Source: patent publication US8548786B2, “Neuronal avalanche assay” (priority 2005, dated 2013)

Assays:
[1] = tested on: acute somatosensory cortex slices; assay: Neuronal avalanche induction in acute somatosensory cortex slices; format: cell-based, rat; settings: 3 μM SKF38393 + 3 μM NMDA
[2] = tested on: acute slices of rat medial prefrontal cortex (mPFC); assay: Neuronal avalanche (NAS) assay, microelectrode array LFP recording in acute mPFC slices;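 further: 60-electrode array recordings, low-pass filtered at 200 Hz and sampled at 1 kHz, nLFPs detected below −3 SD of electrode noise, avalanches as runs of active bins between silent bins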
Procedure: Continuous extracellular signals v(t) can be recorded between 0.1 Hz and 3000 Hz, low-pass filtered at 200 Hz (Butterfly-filter, Multichannel Systems), digitised at a rate of 1 kHz (Δt=1 ms) and stored. For each electrode k (k=[1, nelec], nelec=60), the electrode noise of v(t) can be estimated by calculating the mean and standard deviation (SD) of v(t) from the total duration of the recording, Ttot, which can range, for example, between 40-60 min. […] Negative LFP peaks (nLFPs) at electrode k can be detected by negative threshold crossing at −3 SD of electrode noise and can be characterized by the time and absolute amplitude of the negative LFP peak, A^k(ti), before v(t) returned to threshold. More precisely, at a given temporal resolution Δt, nLFPs at electrode k can be represented by a vector of length nmax, where nmax is an integer value for which Ttot=nmax·Δt. This vector can contain zeros, except for positions ti=i·Δt, iε[1, . . . , nmax,] with values A^k(ti) in μV.
A neuronal avalanche is a sequence of consecutive time bins of width Δt with at least one nLFP, which is preceded and terminated by at least one time bin with no activity (FIG. 3A). The absence of activity for a period of Δt thus indicates the end of an avalanche. If the decision of whether an avalanche has ended is made too early (Δt too short), avalanches will be terminated prematurely; if the Δt chosen is too long, avalanches will be falsely concatenated. If avalanches did simply propagate like a wave, an approximation for Δt (Δtavg) could be obtained by averaging the time between one nLFP at one electrode and the next nLFP at neighbouring electrodes only. Because nLFPs in avalanches occur in irregular patterns across electrodes on the array, a pair wise approximation can be used in order to assess the average time that is required for nLFPs to propagate between electrodes.
In order to calculate Δtavg, the distribution of time intervals T for successive nLFPs on the array can be obtained. Starting with the first nLFP, e.g. A^k(ti) on electrode k at time ti, the next occurrence of an nLFP on the array can be searched for, e.g. A^l(tj) on electrode l at time tj, and calculated the time interval Tm-Δt^k,l, where m=(tj−ti)/Δt. This process can be repeated for all occurrences of nLFPs on electrode k and for all electrodes. The resulting values can be combined into one density distribution P(TmΔt), which captures how often successive nLFPs occurred with a particular delay m·Δt on the array irrespective of their spatial location. Consequently, the average value of T provides an approximation for Δtavg, the average time to wait before making a decision whether an nLFP propagated on the array. However, this interval distribution is highly skewed, particularly when one compares the last nLFP with the first nLFP in successive avalanches that are separated by long times. In order to exclude time intervals from successive nLFPs that are barely correlated, a cut-off time τmax can be calculated for which the average crosscorrelation function (ccf) for pair wise electrode comparisons Rccf(τ) had decayed to negligible values. The ccf between electrodes k, l (Rccf^k,l(τ)) can be calculated as
Because the exemplary maximal sampling rate was 1 kHz, the actual Δt^avg to calculate avalanches can be taken as the nearest multiple of Δt=1 ms. In short, after Δtavg was calculated for a particular network and experimental condition, the extracellular signals v(t) can be re-sampled at the new temporal resolution of Δtavg. Time and amplitude of nLFP peaks can be extracted as A^k(ti), where ti=i·Δtavg, iε[1, n′max] and Ttot=n′max·Δtavg. Avalanches can be determined on the downsampled data set at bin width Δtavg.
Avalanche sizes can be calculated in two different ways (see also FIG. 3A).

Cl.Oc1cc2c(cc1O)C(c1ccccc1)CNCC2 (racemic) [SKF38393] was tested. Which “avalanche induction and layer localisation” value [1] did it give?
The value was “induced neuronal avalanches primarily in superficial layers”.

What about the “average nLFP peak amplitude” value ([2]; 3 μM SKF38393 + 3 μM NMDA) of the same compound?
The value was 6.62±0.01 mV.

And the Δtavg ([2]; 3 μM SKF38393 + 3 μM NMDA)?
Its Δtavg is 3.3±0.2.

What about the “total activity at slope α ~−1.5 compared to dopamine” value ([2]; 3 μM SKF38393 + 3 μM NMDA vs 30 μM dopamine, p=0.007) of the same compound?
Its value is “significantly reduced level of total activity compared to dopamine”.

And the “slope αLFP after rescue by added NMDA” value ([2]; 3 μM SKF38393 alone first, then 3 μM NMDA added)?
Its value is −1.55±0.07.

What about the “induction of nLFPs or avalanches” value ([2]; 3 μM SKF38393 alone, without NMDA) of the same compound?
The value was “did not induce nLFPs or avalanches”.

What about the “slope α of avalanche size distribution” value ([2]; SKF38393 higher or lower than 3 μM (0.3-300 μM range), + 3 μM NMDA) of the same compound?
Its value is under −1.5.
